Patent US20250312493A1, “FLUOROPHORE-LOADED GELATIN-BASED NANOPARTICLES FOR NEAR-INFRARED IMAGING” (The Board of Trustees of the University of Illinois, priority 2022, published 2025)

What was measured:
[1] = Fluorescence intensity of blood after intravenous administration; assay type: in vivo, healthy nude mice; details: 24-hour post-administration, equivalent to 2 mg/kg ICG
Description: Healthy nude mice were administered with either 100 μl PBS solutions of ICG-free or ICG-GNP I (equivalent to 2 mg/kg ICG) intravenously via retro-orbital injection. 100 μl of blood was collected from the lateral tail vein immediately and 24 hours after the administration, transferred to a 96-well plate, and analyzed their fluorescence intensity using the IVIS (n=3).

4T1 tumor = experiment: In vivo NIR fluorescence imaging, tumor to background ratio; design: species or system mice
Description: Animal tumor model: Female immunodeficient mice (J:NU, 2 months old, average body weight 25 g) were purchased from the Jackson Laboratory (Bar Harbor, Maine, USA). Animal study was performed in strict accordance with the recommendations in the Guide for the Care and Use of Laboratory Animals of the National Institutes of Health. Breast cancer xenograft was established by the orthotopic administration of 100 μl 4T1 cell solution (10^6 cells per injection) at the mammary fat pad of the second nipple of the left side of each mouse using a 27G½ needle. Anesthesia was maintained by mask inhalation of 1.5-2.0% isoflurane throughout the procedure.
In vivo and ex vivo NIR fluorescence (NIRF) imaging: When the tumor area reached 10 mm^2 within 14 days, nine tumor-bearing mice were administered with ICG, ICG-GNP I or ICG-GNP II, i.e., three mice for each probe, […] The mice administered with ICG-GNP II were imaged using a bioinspired imaging sensor developed for NIRF image-guided surgery. At each time point, the fluorescence from the primary tumor and surrounding tissues (background) of mice under 2% isoflurane were recorded at 37° C. as regions of interest using the IVIS. A ratio between the mean fluorescence from the tumor and background was assessed and expressed as a TBR. […] The fluorescence intensity of each organ or tissue was acquired using the IVIS and bioinspired imaging sensor.

[2] = Fluorescence intensity at various ICG concentrations in PBS (IVIS); assay type: physicochemical; details: 0.05 μM-100 μM ICG
Description: GNP I or GNP II dispersed in 1 ml of ICG in DI-H2O, with a GNP-to-ICG weight ratio of 20, were incubated for 2 hours at 25° C. The resulting suspension was centrifuged (13,000 rpm/5 min) to discard free ICG in the supernatant. The fluorescence intensity of naked ICG (ICG-free), ICG-loaded GNP I (ICG-GNP I) and GNP II (ICG-GNP II) at various ICG concentrations was recorded and quantified using an In Vivo Imaging System (IVIS, Perkin Elmer, Waltham, MA, USA) (ex 740/em 800 nm).

- fluorescence of blood samples [1]: minimal fluorescence
- ICG concentration above which MFI decreases [2]: above 50 μM
- ICG concentration at which MFI reaches a peak [2]: 10 µM
SMILES: CC1(C)C(/C=C/C=C/C=C/C=C2\N(CCCCS(=O)(=O)O)c3ccc4ccccc4c3C2(C)C)=[N+](CCCCS(=O)(=O)[O-])c2ccc3ccccc3c21 [ICG-free, indocyanine green]
- differences in MFI between the tumor and background (4T1 tumor; 1 mg/kg dose): no measurable differences
- TBR (tumor to background ratio) (4T1 tumor; during a 24-hour period, 2 mg/kg dose, IVIS): ~1.5
